Results taken from patent US10591485B2, “Peptide tags for fluorescent labelling of proteins” (UNIVERSITY OF OTTAWA, priority 2015, dated 2020).
“Also recorded” adds a separate entry of the source. Where a SMILES comes first, the peptide text is derived from it.

Assays:
[1] = Kinetics of addition of fluorogen 1 to MBP-dC10 histidine mutants, Cary Eclipse fluorimeter, 20° C.; format: biochemical; settings: fluorogen 1, 20° C., FIG. 4
Protocol: To start, we used fluorogen 1.
Reactivity of each MBP-dC10 variant was assessed by determining the second order rate constant of the fluorogenic labelling reaction with a dansyl-dimaleimide fluorogenic molecule, referred to as dansyl-dM10 1 (FIG. 11). Dansyl-dM10 was synthesized as described (Caron, K. et al., Org. Biomol. Chem. 9: 185-197, 2011). Initial kinetic studies performed on MBP-dC10 histidine mutants S2H, R9H, A7H and S2H-A17H were done at the scale of 500 μL in the established conditions described below, using a Cary Eclipse Fluorimeter (Varian, Inc., Mississauga, Ontario, Canada) at 20° C.

[2] = pH-rate profile of MBP-dC10 mutants with dansyl-dimaleimide fluorogen, pH 7.50-9.00; format: physicochemical; settings: from horizontal displacement of best fit lines of pH-rate profile, FIG. 8
From the text: A pH range between 7.50 and 9.00 was explored to determine the dependence of the second order rate constant on pH. Only several mutants from libraries II and III were chosen for this pH study: Triple mutants containing lysine and arginine (black line), triple mutants containing histidine and lysine or arginine (light grey line), double mutants (dark grey line) and parent dC10 (dashed line).
Considering the relative reactivity of the members of all three mutant libraries, additional studies were undertaken to attempt to quantify the effect of positively charged residues on the acidity of the cysteine residue thiol groups. […]
Libraries I, II and III were assayed using a plate reader: briefly, in a reaction scale of 200 μL, 50 μM MBP-dC10 (or variants) and 50 μM dansyl-dM10 1 were mixed in HEPES 50 mM pH 7.5 buffer in the presence of TCEP 1 mM. Fluorescence increase was followed at 28° C. long after completion of the reaction (2 hours) using the Synergy™ H4 Hybrid Multi-Mode Microplate Reader (BioTek, Winooski, Vt., United States) plate reader at 515 nm, upon excitation at 330 nm of the dansyl fluorophore of 1. Second order reaction constants were determined using the initial slope and the final plateau of each kinetic curve. […] Fluorogenic reactions were performed in a plate reader as described above, in duplicate.

[3] = Fluorogenic addition reaction kinetics of MBP-dC10 libraries I, II and III with dansyl-dM10 fluorogen 1, plate reader, 28° C.; format: biochemical; settings: for increase in reactivity towards a dimaleimide fluorogen, triple mutants: fluorogen 1, relative to parent dC10, FIG. 10; for reactivity of single mutants A17X (second order rate constant), in words: fluorogen 1, 50 μM equimolar, pH 7.5, 28° C., FIGS. 6 and 7
Protocol: Library I with point mutants at position A17 is represented in dark grey, library II with double mutants A16-A17 is represented in light grey, and library III with triple mutants A3-A16-A17 is represented in black. The rate constant for parent MBP-dC10 is represented in white. All measurements were performed at least in duplicate. The reactivity of each single mutant of MBP-dC10 was evaluated through their reaction with dansyl-dM10 fluorogen 1 (Caron, K. et al., Org. Biomol. Chem., 9: 185-197, 2011), commonly used for test purposes. Equimolar concentrations of 50 μM of fluorogen 1 and MBP-dC10 variant were used in pH 7.5 buffer HEPES 50 mM, supplemented with 1 mM of TCEP reducing agent to reduce disulfide bonds that could form during protein purification or storage. […] Progress curves of the fluorogenic addition reaction were acquired with a plate reader that allowed us to study a large number of samples at the same time. Since the dansyl fluorophore is sensitive to its environment, the reaction of each MBP-dC10 variant led to an end point of slightly different fluorescence intensity. We used a simple second order kinetic model A+B→C where reactants A and B were used in equimolar concentrations. The product C is the only fluorescent species in the milieu and its appearance can be directly followed by increase of fluorescence. Use of this model implies that the second thiol addition is extremely fast due to its intramolecular character, and that the second order kinetic constant k2 depends exclusively on the first thiol addition. This reasonable approximation allowed us to evaluate very simply the overall dC10 reactivity modulated by the presence of stabilizing residues in the proximity of cysteines C6 and C13. Reactivity of each MBP-dC10 variant was assessed by determining the second order rate constant of the fluorogenic labelling reaction with a dansyl-dimaleimide fluorogenic molecule, referred to as dansyl-dM10 1 (FIG. 11). […] Biomol. Chem. 9: 185-197, 2011). Initial kinetic studies performed on MBP-dC10 histidine mutants S2H, R9H, A7H and S2H-A17H were done at the scale of 500 μL in the established conditions described below, using a Cary Eclipse Fluorimeter (Varian, Inc., Mississauga, Ontario, Canada) at 20° C. […] Libraries I, II and III were assayed using a plate reader: briefly, in a reaction scale of 200 μL, 50 μM MBP-dC10 (or variants) and 50 μM dansyl-dM10 1 were mixed in HEPES 50 mM pH 7.5 buffer in the presence of TCEP 1 mM. Fluorescence increase was followed at 28° C. long after completion of the reaction (2 hours) using the Synergy™ H4 Hybrid Multi-Mode Microplate Reader (BioTek, Winooski, Vt., United States) plate reader at 515 nm, upon excitation at 330 nm of the dansyl fluorophore of 1. Second order reaction constants were determined using the initial slope and the final plateau of each kinetic curve. All reactions were performed in duplicate to quadruplicate. For pH dependent kinetics, MBP-dC10 variants were dialysed into a buffer of desired pH, containing 50 mM of buffering salt (pH 7.50-8.00: HEPES; pH 8.25-8.75: Tris-HCl; pH 9.00: CHES) and 1 mM TCEP, overnight at 4° C., with gentle stirring. Fluorogenic reactions were performed in a plate reader as described above, in duplicate.

[4] = In vitro reactivity of dC10 and dC10* with fluorogen 3; format: biochemical; settings: fluorogen 3, 50 μM equimolar, 28° C., FIG. 13
Protocol: (§1) Second order rate constant ratios are shown for fluorogen 3 (grey), and fluorogen 4 (black). Ratios were obtained by normalizing all rate constants to the rate constant of parent MBP-dC10. Absolute values of second order rate constants in M^−1min^−1 are shown for each fluorogen and dC10 or dC10*, and were obtained using equimolar concentration of 50 μM of fluorogen and test protein, at 28° C. Results were obtained at least in duplicate.
(§2) To extend the results shown above with fluorogens 1 and 2, we tested whether the labelling of dC10* (dC10-A3KA16RA17K) with other coumarin fluorogens would also show a kinetic advantage compared to dC10.

[5] = In vitro reactivity of dC10 and dC10* with fluorogen 4; format: biochemical; settings: fluorogen 4, 50 μM equimolar, 28° C., FIG. 13
Protocol: as §1, §2

L1SAAECHAREAACREAAARAGGK23 (LSAAECHAREAACREAAARAGGK) [dC10-A7H]
reactivity (second order kinetic constant) compared with parent dC10 [1]: did not appear to be more reactive than dC10

L1HAAECAAREAACREAHARAGGK23 (LHAAECAAREAACREAHARAGGK) [dC10-S2HA17H]
reactivity (second order kinetic constant) compared with parent dC10 [1]: more reactive than the parent dC10

L1HAAECAAREAACREAAARAGGK23 (LHAAECAAREAACREAAARAGGK) [dC10-S2H]
reactivity (second order kinetic constant) compared with parent dC10 [1]: did not appear to be more reactive than dC10

CC(C)C[C@H](N)C(=O)N[C@@H](CO)C(=O)N[C@@H](CCCCN)C(=O)N[C@@H](C)C(=O)N[C@@H](CCC(=O)O)C(=O)N[C@@H](CS)C(=O)N[C@@H](C)C(=O)N[C@@H](C)C(=O)N[C@@H](CCCNC(=N)N)C(=O)N[C@@H](CCC(=O)O)C(=O)N[C@@H](C)C(=O)N[C@@H](C)C(=O)N[C@@H](CS)C(=O)N[C@@H](CCCNC(=N)N)C(=O)N[C@@H](CCC(=O)O)C(=O)N[C@@H](CCCNC(=N)N)C(=O)N[C@@H](CCCCN)C(=O)N[C@@H](C)C(=O)N[C@@H](CCCNC(=N)N)C(=O)N[C@@H](C)C(=O)NCC(=O)NCC(=O)N[C@@H](CCCCN)C(=O)O [dC10-A3KA16RA17K] (H-LSKAECAAREAACRERKARAGGK-OH; N-terminus and C-terminus assumed)
pKa lower than that of the parent dC10 sequence [2]: 0.70 units

L1SRAECAAREAACRERKARAGGK23 (LSRAECAAREAACRERKARAGGK) [dC10-A3RA16RA17K]
increase in reactivity towards a dimaleimide fluorogen, triple mutants [3]: ~10 fold

L1SAAECAAREAACREAAARAGGK23 (LSAAECAAREAACREAAARAGGK) [dC10, previously described parent dicysteine alpha-helical peptide tag]
rate enhancement compared to dC10 [4]: 4 fold | rate enhancement compared to dC10 [5]: 2 fold

L1SAAECAAHEAACREAAARAGGK23 (LSAAECAAHEAACREAAARAGGK) [dC10-R9H]
reactivity (second order kinetic constant) compared with parent dC10 [1]: did not appear to be more reactive than dC10

L1SAAECAAREAACREAHARAGGK23 (LSAAECAAREAACREAHARAGGK) [dC10-A17H]
reactivity of single mutants A17X (second order rate constant), in words [3]: reacts faster than the parent dC10 peptide tag; also recorded: does not react as fast as the A17K mutant

L1SKAECAAREAACREKKARAGGK23 (LSKAECAAREAACREKKARAGGK) [dC10-A3KA16KA17K]
increase in reactivity towards a dimaleimide fluorogen, triple mutants [3]: ~10 fold

L1SRAECAAREAACREKKARAGGK23 (LSRAECAAREAACREKKARAGGK) [dC10-A3RA16KA17K]
increase in reactivity towards a dimaleimide fluorogen, triple mutants [3]: ~10 fold

L1SAAECAAREAACREHKARAGGK23 (LSAAECAAREAACREHKARAGGK) [dC10-A16HA17K]
reactivity compared among double mutants A16X-A17K ([3]; fluorogen 1, FIG. 10): not as reactive as double mutants A16K-A17K and A16R-A17K

L1SAAECAAREAACREAKARAGGK23 (LSAAECAAREAACREAKARAGGK) [dC10-A17K]
reactivity of single mutants A17X (second order rate constant), in words [3]: best dC10 single mutant
